{"source": "paper PMC8113459", "about": "“Selective inhibition of cullin 3 neddylation through covalent targeting DCN1 protects mice from acetaminophen-induced liver toxicity” (Nature Communications, 2021)", "key": {"[1]": {"target": "T1, cellular DCN1 protein in U2OS cells (Homo sapiens, UniProt Q96GG9)", "T1 construct": "endogenous in cells; host or cells: U2OS", "T1 sequence (Q96GG9 whole entry)": "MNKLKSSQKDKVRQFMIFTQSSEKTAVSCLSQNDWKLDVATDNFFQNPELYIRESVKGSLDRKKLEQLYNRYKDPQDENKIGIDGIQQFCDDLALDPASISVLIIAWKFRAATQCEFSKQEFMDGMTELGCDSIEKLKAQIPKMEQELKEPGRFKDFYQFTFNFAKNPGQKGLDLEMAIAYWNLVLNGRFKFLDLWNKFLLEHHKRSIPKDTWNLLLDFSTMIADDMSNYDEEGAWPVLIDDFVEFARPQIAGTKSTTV", "assay": "Cellular thermal shift assay (CETSA), DCN1", "type": "cell-based", "conditions": "1 h, 53 °C", "description": "CETSA was performed as previously described. The U2OS cells (5 × 10^5 per sample) were treated with compounds or with DMSO for 1 h, washed with PBS for three times, and dissolved in 50 µL PBS supplemented with protease inhibitor, followed by heating at 53 °C in a Mastercycler gradient (Eppendorf, New York, USA). Treated cells were then subjected to snap-freezing in liquid nitrogen and thawed on ice for three cycles. The protein level of DCN1 and DCN3 in equal amount of the supernatant was examined by western blot methods. GAPDH was used as a control. Results are representative of three independent experiments."}, "[2]": {"assay": "Cell viability assay (WST-8), KYSE70", "type": "cell-based, human", "conditions": "human, KYSE70 cells, replicates, read-out: cell viability relative to control", "description": "(§1) Cell viability assay was performed as previously described. The effect of DCN1 inhibitors on cell growth was evaluated by a WST-8 [2-(2-methoxy-4-nitrophenyl)-3-(4-nitrophenyl)-5-(2,4-disulfophenyl)-2H-tetrazolium, monosodium salt assay (Dojindo Molecular Technologies, Inc). Cells (2000–3000 cells in each well) were seeded in 96-well tissue culture plates in medium (100 μL) and treated with serial dilution of DCN1 inhibitors for 3 days. At the end of incubation, WST-8 dye (20 μL) was added to each well and incubated for 1–3 h, then the absorbance was measured in a microplate reader (Molecular Devices) at 450 nm. Cell growth inhibition was evaluated as the ratio of the absorbance of the sample to that of the control. The values were inserted into Prism software, and the curves and the EC50 values were produced by Prism software."}, "KYSE70 cells": {"test_system": "KYSE70 cells", "assay": "Cell viability assay (WST-8), KYSE70", "type": "cell-based, human", "conditions": "for cell viability relative to control: replicates", "description": "as §1"}, "MDA-MB-231 cells": {"test_system": "MDA-MB-231 cells", "assay": "Cell viability assay (WST-8), MDA-MB-231", "type": "cell-based, human", "conditions": "for cell viability relative to control: replicates", "outline": "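Cells (2000–3000 per well) were treated with serial dilutions of DCN1 inhibitors for 3 days, then incubated 1–3 h with WST-8 and absorbance read at 450 nm. Growth inhibition was sample-to-control absorbance ratio, with EC50 from fitted curves.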"}, "[3]": {"test_system": "APAP-induced liver injury", "assay": "APAP-induced liver injury: ROS assay in liver tissue", "type": "in vivo, mouse", "description": "The in vivo studies were performed under animal protocols (PRO00007499) and (PRO00006638) approved by the Institutional Animal Care & Use Committee of the University of Michigan, in accordance with the recommendations in the Guide for the Care and Use of Laboratory Animals of the National Institutes of Health. C57BL/6 WT mice (~8 weeks, male, normal chow) were purchased from the Jackson Laboratory and randomly divided into eight groups (8–9 mice per group) treated (IP) as follows: phosphate-buffered saline vehicle once per day for 3 days (G1), APAP alone a single dose at 400 mg/kg on day 1 (G2), DI-1859 alone 25 mg/kg once per day for 3 days (G3), DI-1859 alone 50 mg/kg once per day for 3 days (G4), pretreatment (1 day before the APAP administration) with DI-1859 at 25 mg/kg once per day for 3 days followed with APAP at 400 mg/kg on day (G5), pretreatment (1 day before the APAP administration) with DI-1859 at 50 mg/kg once per day for 3 days followed with APAP at 400 mg/kg on day (G6), APAP a single dose at 400 mg/kg (3 h before the first DI-1859 administration) followed with DI-1859 at 25 mg/Kg once per day for 3 days (G7), and APAP a single dose at 400 mg/kg (3 h before the first DI-1859 administration) followed with DI-1859 at 50 mg/Kg once per day for 3 days (G8).\nTo induce acute liver injury, animals received PBS or APAP (400 mg/kg, sigma, A7085) through I.P. injection at 12 p.m. and were sacrificed 48 h afterward. To examine the protective effect of DI-1859 (groups 5 and 6), animals were I.P. injected with compound for 3 consecutive days (9 a.m. on each day, starting 1 day before APAP administration). To examine the restorative effect of DI-1859 (groups 7 and 8), animals were I.P. injected with compound 3 h after APAP administration followed by two additional treatments (9 a.m. on the next 2 days). Body weight and blood glucose level measurement, along with blood sample collection, were performed at 12 p.m. on each day.\nLiver samples were homogenized in a lysis buffer and mixed with a dichlorofluorescein diacetate fluorescent probe (DCF, Sigma, D6883) to a final probe concentration of 5 µM for 1 h at 37 °C. DCF fluorescence was measured using a BioTek Synergy 2 Multi-Mode Microplate Reader (485 nm excitation and 527 nm emission)."}, "[4]": {"conditions": "G3: DI-1859 25 mg/kg, qD for 3 days"}, "[5]": {"conditions": "G4: DI-1859 50 mg/kg, qD for 3 days"}, "[6]": {"conditions": "G5: DI-1859 25 mg/kg qD for 3 days, APAP 400 mg/kg 3 h after the second dose"}, "[7]": {"conditions": "G6: DI-1859 50 mg/kg qD for 3 days, APAP 400 mg/kg 3 h after the second dose"}, "[8]": {"conditions": "G7: APAP 400 mg/kg, then DI-1859 25 mg/kg 3 h after APAP and on day 2 and 3"}, "[9]": {"conditions": "G8: APAP 400 mg/kg, then DI-1859 50 mg/kg 3 h after APAP and on day 2 and 3"}}, "note": "“And” between values parts separate entries of the source, which are not always exact repeats. Equal entries are not always repeated. Where two headings read alike, the source gives them in different places."}
{"compound": "C=C(CN1CCOCC1)C(=O)NC[C@@H](NC(=O)[C@H](Cc1nc2ccc(C(C)C)cc2s1)NC(=O)CC)C1CCCCC1", "note": "[DI-1548]", "values": [{"measurement": "concentration as low as which the thermal stability of cellular DCN1 protein is enhanced", "setting": "[1]", "value": "≤ 0.3", "unit": "nM"}, {"measurement": "times more potent than DI-591 and DI-1548DD in enhancing the thermal stability of cellular DCN1 protein", "setting": "[1]", "value": "> 1000", "unit": "times"}, {"measurement": "viability at 72 h", "setting": "[2]; conc 10, 72 h", "value": 99.4, "unit": "%"}, {"measurement": "viability at 72 h", "setting": "[2]; conc 30, 72 h", "value": 104, "unit": "%"}, {"measurement": "viability at 72 h", "setting": "[2]; conc 100, 72 h", "value": 99.4, "unit": "%"}, {"measurement": "viability at 72 h", "setting": "[2]; conc 300, 72 h", "value": 94.1, "unit": "%"}, {"measurement": "EC50", "setting": "KYSE70 cells; Homo sapiens, KYSE-70, 72 h, cell line assigned from panel order, read-out: EC50, cell growth inhibition", "value": "> 1", "unit": "µM"}, {"measurement": "cell viability relative to control", "setting": "KYSE70 cells; conc 10, 72 h", "value": "103.349 and 104.463"}, {"measurement": "cell viability relative to control", "setting": "KYSE70 cells; conc 30, 72 h", "value": "98.066 and 96.6942"}, {"measurement": "cell viability relative to control", "setting": "KYSE70 cells; conc 100, 72 h", "value": "94.5283 and 108.512"}, {"measurement": "cell viability relative to control", "setting": "KYSE70 cells; conc 300, 72 h", "value": "88.5377 and 82.0661"}, {"measurement": "cell viability relative to control", "setting": "KYSE70 cells; conc 1000, 72 h", "value": "64.6226 and 79.9057 and 54.5868"}, {"measurement": "EC50", "setting": "MDA-MB-231 cells; Homo sapiens, MDA-MB-231, 72 h, cell line assigned from panel order, read-out: EC50, cell growth inhibition", "value": "> 1", "unit": "µM"}, {"measurement": "cell viability relative to control", "setting": "MDA-MB-231 cells; conc 10, 72 h", "value": "103.908 and 110.805 and 88.1609"}, {"measurement": "cell viability relative to control", "setting": "MDA-MB-231 cells; conc 30, 72 h", "value": "104.754 and 102.705"}, {"measurement": "cell viability relative to control", "setting": "MDA-MB-231 cells; conc 100, 72 h", "value": "102.874 and 99.4253"}, {"measurement": "cell viability relative to control", "setting": "MDA-MB-231 cells; conc 300, 72 h", "value": "87.0115 and 106.207 and 84.7126"}, {"measurement": "cell viability relative to control", "setting": "MDA-MB-231 cells; conc 1000, 72 h", "value": "77.0115 and 107.241 and 112.414"}]}
{"compound": "C=C(CN(C)C)C(=O)NC[C@@H](NC(=O)[C@H](Cc1nc2ccc(C(C)C)cc2s1)NC(=O)CC)C1CCCCC1", "note": "[DI-1859]", "values": [{"measurement": "ROS level in mouse liver tissue, mean", "setting": "[3]; [4]", "value": 7.034, "unit": "A.U./ug"}, {"measurement": "ROS level normalised to the mean of G1 (vehicle), mean", "setting": "[3]; [4]", "value": 0.9296}, {"measurement": "ROS level in mouse liver tissue, mean", "setting": "[3]; [5]", "value": 7.229, "unit": "A.U./ug"}, {"measurement": "ROS level normalised to the mean of G1 (vehicle), mean", "setting": "[3]; [5]", "value": 0.9554}, {"measurement": "ROS level in mouse liver tissue, mean", "setting": "[3]; [6]", "value": 10.9296, "unit": "A.U./ug"}, {"measurement": "ROS level normalised to the mean of G1 (vehicle), mean", "setting": "[3]; [6]", "value": 1.445}, {"measurement": "ROS level in mouse liver tissue, mean", "setting": "[3]; [7]", "value": 8.337, "unit": "A.U./ug"}, {"measurement": "ROS level normalised to the mean of G1 (vehicle), mean", "setting": "[3]; [7]", "value": 1.102}, {"measurement": "ROS level in mouse liver tissue, mean", "setting": "[3]; [8]", "value": 10.4847, "unit": "A.U./ug"}, {"measurement": "ROS level normalised to the mean of G1 (vehicle), mean", "setting": "[3]; [8]", "value": 1.3857}, {"measurement": "ROS level in mouse liver tissue, mean", "setting": "[3]; [9]", "value": 10.3541, "unit": "A.U./ug"}, {"measurement": "ROS level normalised to the mean of G1 (vehicle), mean", "setting": "[3]; [9]", "value": 1.368}, {"measurement": "effect on the level of reactive oxygen species (ROS)", "setting": "[3]; prevention and treatment settings", "value": "effectively reduced the level of reactive oxygen species"}]}
